Measurements from US20070244103A1, “Novel Compounds Having an Anti-Bacterial Activity” (Morphochem Aktiengesellschaft Fur Kombinatorische Chemie, priority 2004, published 2007).

Assay: MIC of the examples against various organisms
Assay type: cell-based
Conditions: against at least two of the above organisms (12-strain panel)
Experimental: The MIC (μg/ml) of the examples against various organisms was determined: A. baumannii ATCC19606, E. cloacae ATCC23355, E. coli ATCC25922, K. pneumoniae ATCC27736, P. mirabilis ATCC29906, P. aeruginosa ATCC27853, S. maltophilia ATCC13637, S. aureus ATCC43300, S. epidermidis ATCC14990, S. haemolyticus ATCC29970, E. faecalis ATCC29212 and E. faecium ATC19434.

MIC [µg/mL]	SMILES
≤ 2	COc1cnc2cccc(C(O)CN3CCCC(CNCc4ccc5nsnc5c4)C3)c2c1 (single isomer, unassigned) [Example 41, 2-(3-{[(Benzo[1,2,5]thiadiazol-5-ylmethyl)-amino]-methyl}-piperidin-1-yl)-1-(3-methoxy-quinolin-5-yl)-ethanol]
≤ 2	COc1cnc2cccc(C(O)CN3CCCC(CNCc4ccc5c(n4)NC(=O)CS5)C3)c2c1 (single isomer, unassigned) [Example 42, 6-[({1-[2-Hydroxy-2-(3-methoxy-quinolin-5-yl)-ethyl]-piperidin-3-ylmethyl}-amino)-methyl]-4H-pyrido[3,2-b][1,4]thiazin-3-one]
≤ 2	COc1cnc2cccc(C(O)CN3CCCC(CNCc4cc5c(cn4)OCCO5)C3)c2c1 (single isomer, unassigned) [Example 43, 2-(3-{[(2,3-Dihydro-[1,4]dioxino[2,3-c]pyridin-7-ylmethyl)-amino]-methyl}-piperidin-1-yl)-1-(3-methoxy-quinolin-5-yl)-ethanol]
≤ 2	COc1cnc2cccc(C(O)CN3CCCC(CNCc4ccc5c(c4)OCO5)C3)c2c1 (single isomer, unassigned) [Example 44, 2-(3-{[(Benzo[1,3]dioxol-5-ylmethyl)-amino]-methyl}-piperidin-1-yl)-1-(3-methoxy-quinolin-5-yl)-ethanol]
≤ 2	COc1cnc2cccc(C(O)CN3CCCC(CNCc4ccc5c(c4)NC(=O)CO5)C3)c2c1 (single isomer, unassigned) [Example 45, 6-[({1-[2-Hydroxy-2-(3-methoxy-quinolin-5-yl)-ethyl]-piperidin-3-ylmethyl}-amino)-methyl]-4H-benzo[1,4]oxazin-3-one]
≤ 2	COc1ccc2ncc(Cl)c(C(O)CN3CCCC(CNCc4ccc5c(c4)OCO5)C3)c2c1 (single isomer, unassigned) [Example 65, 2-(3-{[(Benzo[1,3]dioxol-5-ylmethyl)-amino]-methyl}-piperidin-1-yl)-1-(3-chloro-6-methoxy-quinolin-4-yl)-ethanol]
≤ 2	COc1ccc2ncc(Cl)c(C(O)CN3CCCC(CNCc4ccc5c(c4)OCCO5)C3)c2c1 (single isomer, unassigned) [Example 66, 1-(3-Chloro-6-methoxy-quinolin-4-yl)-2-(3-{[(2,3-dihydro-benzo[1,4]dioxin-6-ylmethyl)-amino]-methyl}-piperidin-1-yl)-ethanol]
≤ 2	COc1ccc2ncc(Cl)c(C(O)CN3CCCC(CNCc4cc5c(cc4F)SCC(=O)N5)C3)c2c1 (single isomer, unassigned) [Example 67, 6-[({1-[2-(3-Chloro-6-methoxy-quinolin-4-yl)-2-hydroxy-ethyl]-piperidin-3-ylmethyl}-amino)-methyl]-7-fluoro-4H-benzo[1,4]thiazin-3-one]
≤ 2	COc1ccc2ncc(Cl)c(C(O)CN3CCCC(CNCc4ccc5c(c4)NC(=O)CS5)C3)c2c1 (single isomer, unassigned) [Example 68, 6-[({1-[2-(3-Chloro-6-methoxy-quinolin-4-yl)-2-hydroxy-ethyl]-piperidin-3-ylmethyl}-amino)-methyl]-4H-benzo[1,4]thiazin-3-one]
≤ 2	COc1ccc2ncc(Cl)c(C(O)CN3CCCC(CNC/C=C/c4ccccc4)C3)c2c1 (single isomer, unassigned) [Example 69, 1-(3-Chloro-6-methoxy-quinolin-4-yl)-2-{3-[((E)-3-phenyl-allylamino)-methyl]-piperidin-1-yl}-ethanol]
≤ 2	COc1ccc2ncc(Cl)c(C(O)CN3CCCC(CNCc4ccc5nsnc5c4)C3)c2c1 (single isomer, unassigned) [Example 70, 2-(3-{[(Benzo[1,2,5]thiadiazol-5-ylmethyl)-amino]-methyl}-piperidin-1-yl)-1-(3-chloro-6-methoxy-quinolin-4-yl)-ethanol]
≤ 2	COc1ccc2ncc(Cl)c(C(O)CN3CCOC(CNCc4ccc5c(c4)NC(=O)CO5)C3)c2c1 (single isomer, unassigned) [Example 71, 6-[({4-[2-(3-Chloro-6-methoxy-quinolin-4-yl)-2-hydroxy-ethyl]-morpholin-2-ylmethyl}-amino)-methyl]-4H-benzo[1,4]oxazin-3-one]

SMILES	MIC [µg/mL]
COc1cnc2cccc(C(O)CN3C4CCC3CC(NCc3ccc5c(n3)NC(=O)CS5)C4)c2c1 (single isomer, unassigned) [Example 37, 6-({8-[2-Hydroxy-2-(3-methoxy-quinolin-5-yl)-ethyl]-8-aza-bicyclo[3.2.1]oct-3-ylamino}-methyl)-4H-pyrido[3,2-b][1,4]thiazin-3-one]	≤ 2
COc1ccc2ncc(Cl)c(C(O)CN3C4CCC3CC(NCc3ccc5c(c3)NC(=O)CS5)C4)c2c1 (single isomer, unassigned) [Example 57, 6-({8-[2-(3-Chloro-6-methoxy-quinolin-4-yl)-2-hydroxy-ethyl]-8-aza-bicyclo[3.2.1]oct-3-ylamino}-methyl)-4H-benzo[1,4]thiazin-3-one]	≤ 2
COc1ccc2ncc(Cl)c(C(O)CN3C4CCC3CC(NCc3ccc5nsnc5c3)C4)c2c1 (single isomer, unassigned) [Example 58, 2-{3-[(Benzo[1,2,5]thiadiazol-5-ylmethyl)-amino]-8-aza-bicyclo[3.2.1]oct-8-yl}-1-(3-chloro-6-methoxy-quinolin-4-yl)-ethanol]	≤ 2
COc1ccc2ncc(Cl)c(C(O)CN3C4CCC3CC(NCc3ccc5nonc5c3)C4)c2c1 (single isomer, unassigned) [Example 59, 2-{3-[(Benzo[1,2,5]oxadiazol-5-ylmethyl)-amino]-8-aza-bicyclo[3.2.1]oct-8-yl}-1-(3-chloro-6-methoxy-quinolin-4-yl)-ethanol]	≤ 2
COc1ccc2ncc(Cl)c(C(O)CN3C4CCC3CC(NCc3cc5c(cc3F)SCC(=O)N5)C4)c2c1 (single isomer, unassigned) [Example 60, 6-({8-[2-(3-Chloro-6-methoxy-quinolin-4-yl)-2-hydroxy-ethyl]-8-aza-bicyclo[3.2.1]oct-3-ylamino}-methyl)-7-fluoro-4H-benzo[1,4]thiazin-3-one]	≤ 2
COc1ccc2ncc(Cl)c(C(O)CN3C4CCC3CC(NCc3ccc5c(c3)OCO5)C4)c2c1 (single isomer, unassigned) [Example 61, 2-{3-[(Benzo[1,3]dioxol-5-ylmethyl)-amino]-8-aza-bicyclo[3.2.1]oct-8-yl}-1-(3-chloro-6-methoxy-quinolin-4-yl)-ethanol]	≤ 2
COc1ccc2ncc(Cl)c(C(O)CN3C4CCC3CC(NCc3ccc5c(c3)OCCO5)C4)c2c1 (single isomer, unassigned) [Example 62, 1-(3-Chloro-6-methoxy-quinolin-4-yl)-2-{3-[(2,3-dihydro-benzo[1,4]dioxin-6-ylmethyl)-amino]-8-aza-bicyclo[3.2.1]oct-8-yl}-ethanol]	≤ 2
COc1ccc2ncc(Cl)c(C(O)CN3C4CCC3CC(NC/C=C/c3ccccc3)C4)c2c1 (single isomer, unassigned) [Example 63, 1-(3-Chloro-6-methoxy-quinolin-4-yl)-2-[3-((E)-3-phenyl-allylamino)-8-aza-bicyclo[3.2.1]oct-8-yl]-ethanol]	≤ 2
